Source: patent publication US11111232B2, “Substituted cyclobutylpyridine and cyclobutylpyrimidine compounds as indoleamine 2,3-dioxygenase (IDO) inhibitors” (MERCK SHARP & DOHME CORP., priority 2017, dated 2021)

Key:
Assay type in all cases: cell-based
IDO1 [1] = target: T1, IDO1 (Homo sapiens, UniProt P14902); assay: IDO1 cellular assay in Hela cells stimulated with IFNγ; conditions: IFNγ 100 ng/mL, 300 uM L-tryptophan, about 48 hours, fluorescence readout
Description: IDO1 Cellular Assay in Hela Cells Stimulated with IFNγ
Hela cells were cultured in complete Hela culture medium (90% EMEM, 10% heat-inactivated fetal bovine serum) and expanded to about 1×10^9 cells. The cells were then collected and frozen down at 1×10^7 cells/vial in 1 mL frozen medium (90% complete Hela culture medium, 10% DMSO)
Compounds to be tested were serially diluted in ten 3-fold steps in DMSO starting from 10 mM DMSO stocks in Echo low volume plate(s).
Frozen Hela cells were thawed and transferred into Hela assay medium (99% complete Hela culture medium, 1% Pen/Strep) with 20 mL medium/vial of cells. The cells were spun down at 250 g in a table top centrifuge for 5 min and suspended in same volume of Hela assay medium. […] Sterile L-tryptophan were added to the cells with final concentration of 300 uM L-tryptophan. A small aliquot (2 mL/plate) of Hela cells were set aside and were not treated with IFNγ, to serve as the Max-E control.
Hela cells with and without IFNγ were dispensed to the respective wells of 384-well assay plates containing the compounds. The plates were incubated for about 48 hours at a 37° C., 5% CO2 incubator. Afterwards, […] of 0.5 M methyl isonipecotate in dimethyl sulfoxide were added into each well and the plates were sealed and incubated at 37° C. without CO2 overnight. The plates were centrifuged for 1 min at 200×g. The resulting fluorescence was measured in a Spectramax plate reader (Molecular Devices) with a 400 nm excitation filter and a 510 nm emission filter.
Potencies were calculated by linear least squares fit to the four parameter logistic IC50 equation.

IDO1 [2] = target: T1, IDO1; assay: IDO1 HEK293 cellular assay; conditions: HEK293 cells transfected with Flag-IDO1 vector, 20-24 hours, fluorescence readout
Description: IDO1 HEK293 Cellular Assay
Compounds to be tested were serially diluted in ten 3-fold steps in DMSO starting from 10 mM DMSO stocks. Compound dilutions or DMSO alone were then dispensed from the dilution plate into a Greiner black 384-well assay plate (catalog #781086) using an Echo 550 acoustic liquid handler (Labcyte).
HEK293 cell pellets were resuspended to 5×10^5 cells/mL in complete HEK293 culture media (89% DMEM, 10% FBS, 1% penicillin/streptomycin). Suspended cells (2 mL) were dispensed into each well of a 6-well Corning plate (Catalog # 3516). Cells were allowed to attach and were incubated for 20 hours at 37° C. in a 5% CO2 incubator. Flag-IDO1 vector (Genscript True ORF Gold, 2 ug) in 150 uL of Opti-MEM medium was added to each well of a Corning 24 well plate (Cat # 3527) and incubated for 5 minutes at room temperature. To each well of the 24-well plate was added […] Lipofectamine 2000 (Gibco) and the plate incubated at room temperature for 20-30 minutes. To each well of attached cells in the 6-well plate, […] of the transfection mix from the 24-well plate was gently added to each well and IDO1 protein was allowed to express for 24-30 hours at 37 degrees Celsius in a 5% CO2 incubator.
Media was removed from the cells which were then washed with 2 mL Dulbecco's phosphate-buffered saline (DPBS). After removal of DPBS, 0.5 mL of TrypLE (Gibco) was added and incubated at 5 minutes until cells lift from the surface of the wells. Complete HEK293 culture media (4 mL) was added to each well and cells were collected and pooled into a conical tube. Cells were pelleted at 200×g for 5 minutes and resuspended in an equal volume of complete DMEM medium. Cells were diluted to 4×10^5 cells per mL in complete HEK293 media. L-Tryptophan was added to added to give a final concentration of […]. The diluted transfected cells […] or nontransfected cells […] were dispensed into wells of Greiner black 384-well assay plates (catalog #781086) containing previously diluted compounds. The plate is briefly mixed and centrifuged at 200×g for 10 seconds to collect cells at the bottom of the plate. Plates were covered and incubated for 20-24 hours at 37 degrees C. in a 5% CO2 incubator. Afterwards […] of 0.5 M methyl isonipecotate in dimethyl sulfoxide was added to each well, mixed, sealed, and centrifuged at 500 rpm for 10 seconds. Plates were incubated at 37 degrees in a 5% CO2 incubator overnight to develop fluoresence. The plates are allowed to cool and then centrifuged for 1 minute at 1000×g. The resulting fluoresence was measured in an Envision plate reader (Perkin Elmer) with a 400/25 nm excitation filter and an 510/20 nm emission filter.
(§1) The fluoresence intensity of each well was corrected for the background observed in wells with untransfected cells and was expressed as a fraction of the intensity observed in wells of IDO1 transfected cells and DMSO only. Potencies were calculated by linear least squares fit to the four parameter logistic IC50 equation.

TDO = target: T2, TDO (Homo sapiens, UniProt P48775); assay: TDO cellular assay in frozen SW48 cells; conditions: 300 uM L-tryptophan, about 48 hours, fluorescence readout
T2 construct: endogenous in cells; host or cells: SW48 cells (A2780 cells as low-TDO control)
Description: TDO Cellular Assay in Frozen SW48 Cells
SW48 cells were cultured in complete RPMI culture medium (90% RPMI, 10% heat-inactivated fetal bovine serum).
Compounds to be tested were serially diluted in ten 3-fold steps in DMSO starting from 10 mM DMSO stocks in Echo low volume plate(s). […] The cells were spun down at 350 g in a table top centrifuge for 5 minutes and suspended in same volume of RPMI assay medium. […] Sterile L-tryptophan (Sigma, Cat #T0254) was added to the cells with final concentration of 300 uM.
SW48 and A2780 cells were dispensed to the respective wells of 384-well assay plates containing the compounds. The plates were incubated for about 48 hours at a 37° C., 5% CO2 incubator. Afterwards, 12 μL of 0.5 M ethyl isonipecotate (Sigma Aldrich, Cat #E33505) in dimethyl sulfoxide were added into each well and the plates were sealed and incubated at 37° C. without CO2 overnight. The plates were centrifuged for 1 minute at 200×g. The resulting fluorescence was measured in a Spectramax plate reader (Molecular Devices) with a 400 nm excitation filter and a 510 nm emission filter.
as §1, with “fluorescence” for “fluoresence”, “A2780” for “untransfected”, “SW48” for “IDO1 transfected”

T2 sequence (P48775 whole entry): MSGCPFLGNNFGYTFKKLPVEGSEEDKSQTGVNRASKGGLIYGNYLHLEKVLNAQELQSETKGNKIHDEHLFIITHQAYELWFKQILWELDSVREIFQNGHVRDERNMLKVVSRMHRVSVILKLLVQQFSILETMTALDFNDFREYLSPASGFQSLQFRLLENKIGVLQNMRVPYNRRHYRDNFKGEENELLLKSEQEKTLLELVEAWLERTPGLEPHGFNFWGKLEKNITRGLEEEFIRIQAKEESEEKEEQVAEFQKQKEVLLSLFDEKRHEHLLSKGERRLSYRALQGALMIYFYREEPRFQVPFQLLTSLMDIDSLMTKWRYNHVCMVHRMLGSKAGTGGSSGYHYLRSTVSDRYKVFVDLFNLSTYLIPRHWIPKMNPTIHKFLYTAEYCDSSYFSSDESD
T1 sequence (P14902 whole entry): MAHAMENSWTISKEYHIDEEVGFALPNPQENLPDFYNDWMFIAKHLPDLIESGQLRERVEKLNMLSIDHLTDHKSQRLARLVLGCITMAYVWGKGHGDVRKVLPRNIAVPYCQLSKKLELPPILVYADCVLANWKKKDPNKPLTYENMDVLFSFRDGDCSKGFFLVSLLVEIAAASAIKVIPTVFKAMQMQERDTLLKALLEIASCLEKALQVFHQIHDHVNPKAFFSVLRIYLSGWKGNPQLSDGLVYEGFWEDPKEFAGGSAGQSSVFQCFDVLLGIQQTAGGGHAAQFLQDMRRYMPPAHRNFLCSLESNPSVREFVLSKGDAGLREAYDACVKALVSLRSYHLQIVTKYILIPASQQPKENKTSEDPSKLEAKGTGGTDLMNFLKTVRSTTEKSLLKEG

O=C(CCC(F)(F)F)Nc1ccc(C2(C(=O)Nc3ccc(F)cc3)CCC2)cn1 [Example 5, N-(4-fluorophenyl)-1-(6-(4,4,4-trifluorobutanamido)pyridin-3-yl)cyclobutane-1-carboxamide] showed an IC50 (IDO1 [1]) of 0.072 µM, an IC50 (IDO1 [2]) of 0.076 µM and an IC50 (TDO) of at least 10 µM.
O=C(Nc1ccc(C2(C(=O)Nc3ccc(F)cc3)CCC2)cn1)C1CCCC(F)(F)C1 (stereo not drawn) [Example 17, 3,3-difluoro-N-(5-{1-[(4-fluorophenyl)carbamoyl]cyclobutyl}pyridin-2-yl)cyclohexane-1-carboxamide] gave an IC50 (IDO1 [1]) of 0.028 µM, an IC50 (IDO1 [2]) of 0.026 µM and an IC50 (TDO) of at least 10 µM.
O=C(CCC1CC1)Nc1ccc(C2(C(=O)Nc3ccc(F)cc3)CCC2)cn1 [Example 18, 1-{6-[(3-cyclopropylpropanoyl)amino]pyridin-3-yl}-N-(4-fluorophenyl)cyclobutane-1-carboxamide] gave an IC50 (IDO1 [1]) of 0.029 µM, an IC50 (IDO1 [2]) of 0.032 µM and an IC50 (TDO) of at least 10 µM.
For O=C(Nc1ccc(C2(C(=O)Nc3ccc(F)cc3)CCC2)cn1)C1CCOCC1 [Example 20, N-(5-{1-[(4-fluorophenyl)carbamoyl]cyclobutyl}pyridin-2-yl)oxane-4-carboxamide], the IC50 (IDO1 [1]) was 0.138 µM, the IC50 (IDO1 [2]) was 0.156 µM and the IC50 (TDO) was at least 10 µM.
For O=C(Nc1ccc(C2(C(=O)Nc3ccc(F)cc3)CCC2)cn1)C1CCCOC1 (stereo not drawn) [Example 22, N-(5-{1-[(4-fluorophenyl)carbamoyl]cyclobutyl}pyridin-2-yl)oxane-3-carboxamide], the IC50 (IDO1 [1]) was 0.154 µM, the IC50 (IDO1 [2]) was 0.123 µM and the IC50 (TDO) was at least 10 µM.
CC(C)CC(=O)Nc1ccc(C2(C(=O)Nc3ccc(F)cc3)CCC2)cn1 [Example 27, N-(4-fluorophenyl)-1-{6-[(3-methylbutanoyl)amino]pyridin-3-yl}cyclobutane-1-carboxamide] showed an IC50 (IDO1 [1]) of 0.025 µM, an IC50 (IDO1 [2]) of 0.028 µM and an IC50 (TDO) of at least 10 µM.
For O=C(CC1CC1)Nc1ccc(C2(C(=O)Nc3ccc(F)cc3)CCC2)cn1 [Example 30, 1-{6-[(cyclopropylacetyl)amino]pyridin-3-yl}-N-(4-fluorophenyl)cyclobutane-1-carboxamide], the IC50 (IDO1 [1]) was 0.083 µM, the IC50 (IDO1 [2]) was 0.07 µM and the IC50 (TDO) was at least 10 µM.
